Reference: US20230181540A1, “COMPOSITIONS AND METHODS FOR ACTIVATING SIGNALING THROUGH THE CB2 CANNABINOID RECEPTOR FOR TREATING AND PREVENTING LYSOSOMAL STORAGE DISEASES AND DISORDERS” (Wylder Nation Foundation, priority 2020, published 2023)
“Also recorded” adds a separate entry of the source.

How the values were obtained:
MCP-1 [1] = experiment: MCP-1 released into culture media by skin fibroblasts from a patient with MPS IIIA (ELISA); type: cell-based, human; settings: 3.2 micromoles/ml, 72 or 96 hr, vs cultures without drug, p < 0.01
Method: Skin fibroblasts from a patient with MPS IIIA were grown to ~70% confluency and the CB2 agonists JHW133 and PM226 were added to the culture media for 72 or 96 hr at a dose of 3.2 micromoles/ml (black and gray bars, respectively). Control: cultures without drug added (white bars). […] Bar heights indicate the mean values from three independent experiments. Vertical lines indicate the standard error of the mean. * = p < 0.01 comparing with and without drug.

[2] = test system: mouse model of Niemann-Pick diseases type C1 (NPC1); settings: cited from earlier work
[3] = test system: mouse model of Sanfilippo disease (mucopolysaccharidosis IIIA); settings: cited from earlier work
CB2 = experiment: Immunohistochemical analysis of CB2 expression in organs of Farber disease mice; type: in vivo, mouse; settings: 5 mg/kg i.p. 3x a week for 6 weeks, 8.5-week-old, vs untreated Farber mice
Method: Ten 2.5-week-old Farber disease mice were treated once weekly with recombinant acid ceramidase by intraperitoneal injection at a dose of 10 mg/kg. After 6 injections the 8.5-week-old mice were euthanized and their organs collected and processed for immunohistochemical analysis of CB2 expression. […] Thus, CB2 can be used as a biomarker to monitor the efficacy of treatment for Farber disease and other lysosomal storage disorders.
(§1) Ten 2.5-week-old Farber disease mice were treated 3x a week by intraperitoneal injection of JWH133 at a dose of 5 mg/kg. After 6 weeks the 8.5-week-old mice were euthanized and their organs collected and processed for immunohistochemical analysis of CB2 expression. […] Thus, CB2 agonists, such as JWH133, can be used to treat Farber disease and other lysosomal storage disorders.

MCP-1 [4] = experiment: MCP-1 expression in liver and plasma of Farber disease mice; type: in vivo, mouse; settings: 5 mg/kg i.p. 3x a week for 6 weeks, vs untreated Farber mice
Method: as §1, with “organs and plasma” for “organs”, “of MCP-1” for “of CB2”, “storage disorders (* = p<0.01).” for “storage disorders.”

Farber mice = experiment: Survival and body weight of Farber mice treated with CB2 agonist
Method: Two Farber mouse groups were studied (n=12 mice per group). […] In the control group they were injected with DMSO alone. Weight was monitored daily.

## CCCCCCC(C)(C)c1cc(OC)c2c(c1)OC(C)(C)c1cnoc1-2 [PM226]
MCP-1 [1]
  levels of MCP-1 released into the culture media: able to reduce the levels of MCP-1 released into the culture media

## CC(C)Cc1ccc(C(C)C(=O)O)cc1 (centres unmarked) [ibuprofen]
[2]; high doses
  lifespan: prolong the lifespan of the mice by about two weeks
  onset of clinical signs: modestly slow the onset of clinical signs

## CC(=O)Oc1ccccc1C(=O)O [aspirin]
[3]; chronic treatment for 6 months with high doses
  expression of inflammation-related genes: normalize expression of some inflammation-related genes
[2]
  treatment efficacy: failed to show treatment efficacy

## pentosan polysulfate [PPS]
[3]; mouse model of MPS IIIA, attributed to systemic effects
  CNS pathology: some improvements in CNS pathology were noted

## CCCC(C)(C)c1ccc2c(c1)OC(C)(C)[C@@H]1CC=C(C)C[C@@H]21 [JWH133]
CB2
  CB2 expression (immunohistochemistry): significantly reduced
MCP-1 [4]
  MCP-1 expression in the liver: significantly reduced
MCP-1 [4]; p<0.01
  MCP-1 expression in plasma: significantly reduced
MCP-1 [1]
  levels of MCP-1 released into the culture media: able to reduce the levels of MCP-1 released into the culture media
Farber mice; Farber mice, 5 mg/kg i.p. three times a week from 2 weeks of age
  day of natural death in the treatment group: 47 days
Farber mice; Farber mice, 5 mg/kg i.p. three times a week in DMSO from 2 weeks of age, vs vehicle control (all dead by day 44)
  survival / life span: survived longer than vehicle control treated mice
Farber mice; Farber mice, 5 mg/kg i.p. three times a week, throughout the study, vs vehicle alone, 5 mg/kg
  body weight: significantly greater; also recorded: significant prevention of weight loss
Farber mice; of 12 Farber mice, 5 mg/kg i.p. three times a week, remaining 11 euthanized at day 58
  number of mice that died naturally in the treatment group: 1
